In patent US11370773B1, “Inhibiting human integrin (alpha-4) (beta-7)” (Morphic Therapeutic, Inc., priority 2019, dated 2022):

Experiments:
α4β7 = molecular target: T1, α4β7 (Homo sapiens, UniProt P13612+P26010); assay: Cell adhesion assay, RPMI8866 cells adhering to MAdCAM coated plates; type: cell-based; conditions: RPMI8866 cells on recombinant human MAdCAM coated plates; read-out: CA Assay (Example 7) IC50
T1 construct: α4β7 expressing cells (RPMI-8866); endogenous in cells; host or cells: RPMI 8866
T1 sequence (P13612 34-1032): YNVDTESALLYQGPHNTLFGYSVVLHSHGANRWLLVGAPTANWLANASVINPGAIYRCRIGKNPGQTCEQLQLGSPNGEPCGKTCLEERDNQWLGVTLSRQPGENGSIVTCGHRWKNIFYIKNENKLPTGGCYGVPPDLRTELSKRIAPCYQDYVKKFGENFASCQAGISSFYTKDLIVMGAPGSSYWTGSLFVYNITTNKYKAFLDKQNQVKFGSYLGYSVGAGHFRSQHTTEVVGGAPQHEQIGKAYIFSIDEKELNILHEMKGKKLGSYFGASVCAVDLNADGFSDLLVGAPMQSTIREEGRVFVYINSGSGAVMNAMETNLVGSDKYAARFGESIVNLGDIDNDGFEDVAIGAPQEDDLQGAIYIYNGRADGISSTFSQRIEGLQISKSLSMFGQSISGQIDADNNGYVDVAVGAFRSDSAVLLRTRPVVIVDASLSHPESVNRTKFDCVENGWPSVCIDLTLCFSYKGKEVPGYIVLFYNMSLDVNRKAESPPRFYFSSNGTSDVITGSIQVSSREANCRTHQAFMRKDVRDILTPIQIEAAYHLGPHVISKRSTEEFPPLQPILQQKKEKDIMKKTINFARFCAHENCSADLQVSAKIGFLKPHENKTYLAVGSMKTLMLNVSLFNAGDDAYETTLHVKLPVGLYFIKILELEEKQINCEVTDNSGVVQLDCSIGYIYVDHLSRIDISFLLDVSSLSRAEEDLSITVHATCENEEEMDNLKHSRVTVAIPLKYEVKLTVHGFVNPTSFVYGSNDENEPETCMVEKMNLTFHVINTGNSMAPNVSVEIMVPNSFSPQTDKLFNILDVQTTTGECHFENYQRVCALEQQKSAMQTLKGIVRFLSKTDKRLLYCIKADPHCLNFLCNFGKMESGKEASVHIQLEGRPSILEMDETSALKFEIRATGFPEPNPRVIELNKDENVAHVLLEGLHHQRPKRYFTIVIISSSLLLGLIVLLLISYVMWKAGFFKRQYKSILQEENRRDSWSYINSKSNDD
T1 sequence (P26010 20-798): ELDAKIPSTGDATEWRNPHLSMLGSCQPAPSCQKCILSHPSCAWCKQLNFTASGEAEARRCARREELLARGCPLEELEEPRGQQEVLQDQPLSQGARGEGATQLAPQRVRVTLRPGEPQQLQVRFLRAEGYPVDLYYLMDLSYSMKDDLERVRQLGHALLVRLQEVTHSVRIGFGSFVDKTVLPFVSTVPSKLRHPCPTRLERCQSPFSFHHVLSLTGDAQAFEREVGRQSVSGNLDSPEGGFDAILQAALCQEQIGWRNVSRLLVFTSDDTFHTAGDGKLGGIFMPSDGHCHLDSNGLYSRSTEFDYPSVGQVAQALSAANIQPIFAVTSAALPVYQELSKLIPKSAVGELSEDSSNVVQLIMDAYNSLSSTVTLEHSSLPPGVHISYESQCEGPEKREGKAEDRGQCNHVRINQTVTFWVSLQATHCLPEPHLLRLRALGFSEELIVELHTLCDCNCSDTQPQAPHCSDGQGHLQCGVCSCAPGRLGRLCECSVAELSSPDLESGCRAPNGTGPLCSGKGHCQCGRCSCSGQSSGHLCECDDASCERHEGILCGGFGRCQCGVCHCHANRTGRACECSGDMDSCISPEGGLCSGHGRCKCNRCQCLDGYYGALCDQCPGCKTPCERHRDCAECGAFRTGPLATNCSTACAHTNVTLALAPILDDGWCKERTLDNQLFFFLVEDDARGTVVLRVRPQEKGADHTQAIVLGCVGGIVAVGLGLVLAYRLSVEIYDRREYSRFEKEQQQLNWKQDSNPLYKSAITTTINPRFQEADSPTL
Method: (§1) Three in vitro assays were used to examine the α4β7 mechanistic process used by cells: 1) ligand:receptor affinity, 2) the avidity of those interactions on a cell's surface, and 3) how those interactions fare under an imposing force. In Example 5, a Fluorescence Polarization (FP) assay is used to measure compound activity through binding competition with the fluorescein-labeled peptide. In Example 6, the potency of compounds against α4β7 is measured in the cell-based ligand binding assay (LBA), using RPMI 8866 cells incubated with the compound samples in competition with soluble MAdCAM-1 ligand. In Example 7, activity of compounds is evaluated in a cell adhesion assay that mechanistically tests what occurs in vivo when trafficking cells utilize α4β7 to adhere to MAdCAM-1 expressing HEVs of the gut during the extravasation process. In the cell adhesion assay of Example 7, a MAdCAM1-(Fc) is coated on plastic, and α4β7 expressing cells (RPMI-8866) are allowed to adhere to the coated surface in the presence of the test compounds. Next, the force of washing with buffer is applied to cells thereby testing the strength of that adhesion. Unattached cells are removed and the remaining adherent cells are quantified.
Example 7 describes a cell adhesion assay.
To each well of a 96 well plate, 100 ug of recombinant human MAdCAM in 100 ul PBS is added and incubated overnight at 4° C. After incubation MAdCAM is removed by aspiration and 200 ul of PBS+1% BSA is added to block the plate for 2 hours at 37° C. and 5% CO2. During this incubation dilution curves of compound are made in 100% DMSO in 96 well V bottom plates. 1.75 ul of diluted compounds are then transferred to a new 96 well U bottom plate containing 20 ul of assay media (phosphate free DMEM+25 mM HEPES+1% BSA). To this an additional 155 ul of assay media is added with mixing by pipetting up and down. This mixture is allowed to incubate for 15 minutes at 37° C. and 5% CO2. After incubation 175 ul of assay media containing 2e6/mL RPMI8866 cells is added to compound containing wells without mixing and plate is allowed to incubate for another 15 minutes at 37° C. and 5% CO2. During this incubation MAdCAM coated plates are removed from incubator and washed twice with 200 ul PBS+0.1% BSA. […] This plate is then incubated at 37° C. and 5% CO2 for 1 hour. After incubation plates are washed twice with 200 ul and once with 50 ul of phenol free RPMI+1% BSA. A final 50 ul of phenol free RPMI+1% BSA is added to wells after last wash. Next 50 ul of Promega cell titer glow is added to the wells. Plate is incubated on shaker for 2 minutes at 200 RPM followed by another 8 minutes off shaker before having the luminescence read on a Biotek Citation 5 plate reader. Raw data is converted to % inhibition compared to bottom of curve and analyzed using a 4-parameter non linear curve in Prism to determine IC50 and IC90.

integrin α4β7 = molecular target: T2, integrin α4β7 (Homo sapiens, UniProt P13612+P26010); assay: Fluorescence Polarization (FP) assay for α4β7 binding, competition with fluorescein-labeled peptide; conditions: 6.5 nM integrin α4β7, 3 nM fluorescein-labeled peptide, 2 mM MnCl2; read-out: FP Assay (Example 5) IC50
T2 sequence (P13612 34-977 limits assumed): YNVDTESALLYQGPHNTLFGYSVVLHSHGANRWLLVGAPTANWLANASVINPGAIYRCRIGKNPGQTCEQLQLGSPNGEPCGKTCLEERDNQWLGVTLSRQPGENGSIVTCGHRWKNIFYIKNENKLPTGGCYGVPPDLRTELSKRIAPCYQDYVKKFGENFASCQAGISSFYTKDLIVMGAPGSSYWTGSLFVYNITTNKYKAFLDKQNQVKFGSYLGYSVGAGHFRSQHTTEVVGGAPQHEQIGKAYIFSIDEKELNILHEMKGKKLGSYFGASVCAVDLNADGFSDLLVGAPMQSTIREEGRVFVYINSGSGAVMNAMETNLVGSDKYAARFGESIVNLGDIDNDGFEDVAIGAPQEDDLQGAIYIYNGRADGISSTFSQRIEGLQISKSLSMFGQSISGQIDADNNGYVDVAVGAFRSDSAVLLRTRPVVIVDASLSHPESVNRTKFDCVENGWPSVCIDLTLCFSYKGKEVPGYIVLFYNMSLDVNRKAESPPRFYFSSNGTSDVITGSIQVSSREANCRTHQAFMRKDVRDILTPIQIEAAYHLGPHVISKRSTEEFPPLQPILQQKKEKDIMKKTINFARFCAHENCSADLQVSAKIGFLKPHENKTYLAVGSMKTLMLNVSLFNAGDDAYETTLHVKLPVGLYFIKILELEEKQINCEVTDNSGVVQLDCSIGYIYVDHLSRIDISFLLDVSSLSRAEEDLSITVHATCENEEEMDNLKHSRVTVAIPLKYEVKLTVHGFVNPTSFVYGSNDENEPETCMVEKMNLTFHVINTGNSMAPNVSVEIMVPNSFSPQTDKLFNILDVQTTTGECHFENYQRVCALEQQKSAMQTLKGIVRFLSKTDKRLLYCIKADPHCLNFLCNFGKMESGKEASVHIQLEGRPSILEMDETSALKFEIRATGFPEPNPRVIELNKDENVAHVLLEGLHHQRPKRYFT
T2 sequence (P26010 20-723 limits assumed): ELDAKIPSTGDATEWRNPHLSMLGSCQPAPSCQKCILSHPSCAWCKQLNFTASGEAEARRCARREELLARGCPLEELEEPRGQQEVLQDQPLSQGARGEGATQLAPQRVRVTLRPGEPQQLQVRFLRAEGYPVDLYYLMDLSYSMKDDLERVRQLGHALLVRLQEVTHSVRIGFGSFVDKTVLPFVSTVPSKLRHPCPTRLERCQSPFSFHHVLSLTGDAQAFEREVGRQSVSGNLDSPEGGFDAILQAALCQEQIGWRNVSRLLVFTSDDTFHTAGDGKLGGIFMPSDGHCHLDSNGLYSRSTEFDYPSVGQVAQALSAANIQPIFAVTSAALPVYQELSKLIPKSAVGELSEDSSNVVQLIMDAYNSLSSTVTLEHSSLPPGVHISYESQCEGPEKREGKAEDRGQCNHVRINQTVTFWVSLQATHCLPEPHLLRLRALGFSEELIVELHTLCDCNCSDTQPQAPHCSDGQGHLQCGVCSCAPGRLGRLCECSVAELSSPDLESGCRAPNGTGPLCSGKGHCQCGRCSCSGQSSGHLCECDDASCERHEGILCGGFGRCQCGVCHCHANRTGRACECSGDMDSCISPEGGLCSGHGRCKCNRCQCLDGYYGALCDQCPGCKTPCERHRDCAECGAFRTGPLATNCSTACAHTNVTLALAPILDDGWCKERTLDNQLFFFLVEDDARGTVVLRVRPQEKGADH
Method: as §1
Fluorescence Polarization (FP) assays were used to measure compound activity through binding competition with the fluorescein-labeled peptide […]{Lys(FITC)}. In the assay, 6.5 nM of integrin α4β7 was incubated with the test compound in 2 mM manganese chloride, 0.1 mM calcium chloride, 20 mM HEPES buffer at pH 7.3, 150 mM sodium chloride, 0.01% Triton X-100, 2% DMSO, and 3 nM of the fluorescein-labeled peptide. Running the assays in 384-well plates, the integrin protein was pre-incubated with the test compounds for 15 minutes at 22° C. before the fluorescein-labeled peptide was added. After the fluorescein-labeled peptide was added, the assay was incubated at 22° C. for 1 hour and fluorescence polarization was measured. IC50 values were determined by non-linear regression, four-parameter curve fitting.

| SMILES | IC50 (α4β7) | IC50 (integrin α4β7) |
| --- | --- | --- |
| Cc1cc(-c2c(C)cccc2C)cc([C@H](CC(=O)O)NC(=O)[C@H](CC(C)C)n2cc(CCN3CC[C@@H](F)C3)cc(F)c2=O)c1F (single isomer, unassigned) [AU-P2] | < 5 nM | – |
| Cc1cc(C)c(-c2cc(C)c(F)c([C@H](CC(=O)O)NC(=O)C(CC(C)C)n3cc(CCN(C)C)c(C(F)(F)F)cc3=O)c2)c(C)c1 (single isomer, unassigned) [AC-P2] | – | ≤ 10 nM |
